Conditions: pH 5

- chemical stability of L-phe-O-< over L-phe-OMe: seven times higher
- stability of the ester (hydrolysis to L-phenylalanine): stable
Compound: CC(C)OC(=O)[C@@H](N)Cc1ccccc1 [L-phe-O-<, L-phenylalanine isopropyl ester]

Reference: patent publication US5350681A, “Enzymatic membrane method for the synthesis and separation of peptides” (The Coca-Cola Company, priority 1992, dated 1994)
